pIC50: −log10 of the molar value.

In BindingDB's records for doi:10.7270/Q2W957N3 (Burnham Center For Chemical Genomics, 2010) one finds IC50 data, which are given here for 3 compounds.

Sequence of Alkaline phosphatase, placental type (P05187 whole entry, looked up): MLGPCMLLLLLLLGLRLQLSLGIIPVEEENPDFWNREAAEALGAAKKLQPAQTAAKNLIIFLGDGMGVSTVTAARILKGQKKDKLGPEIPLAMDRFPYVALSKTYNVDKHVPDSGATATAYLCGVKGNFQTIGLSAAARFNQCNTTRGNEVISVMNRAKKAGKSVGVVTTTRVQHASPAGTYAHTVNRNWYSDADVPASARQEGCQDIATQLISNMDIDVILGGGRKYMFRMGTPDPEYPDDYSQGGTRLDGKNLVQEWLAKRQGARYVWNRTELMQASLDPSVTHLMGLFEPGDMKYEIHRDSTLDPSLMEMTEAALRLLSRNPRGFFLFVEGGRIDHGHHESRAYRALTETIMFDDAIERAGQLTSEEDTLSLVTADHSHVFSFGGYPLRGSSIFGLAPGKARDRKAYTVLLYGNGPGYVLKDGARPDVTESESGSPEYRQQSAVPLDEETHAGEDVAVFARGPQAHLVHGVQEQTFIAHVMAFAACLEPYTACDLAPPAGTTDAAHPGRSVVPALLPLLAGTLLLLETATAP

The experiment has as its target Alkaline phosphatase, placental type (Homo sapiens, UniProt P05187). The experiment is described as follows: inhibition of placental alkaline phosphatase – biochemical, uHTS hits, luminescence, selectivity assay for human IAP inhibitor project, dose response (AID 488892).
The term pIC50 denotes −log10 of the IC50, conventionally taken in molar units. For `CC(N=Nc1ccccc1[N+](=O)[O-])c1ccc([N+](=O)[O-])cc1` (stereo not drawn), the negative logarithm of the IC50 (pIC50) is less than 4.00.
Consider `C=c1[nH]n(Cc2ccccc2)c(=O)c1=Cc1ccc(N(C)C)cc1` [(4Z)-4-[[4-(dimethylamino)phenyl]methylidene]-5-methyl-2-(phenylmethyl)-3-pyrazolone], for which the pIC50 is 4.42.
For the compound `CCOC1=CC(=Cc2c(C)[nH]oc2=O)C=C(Br)C1=O` [4-[(Z)-(3-bromo-5-ethoxy-4-oxo-1-cyclohexa-2,5-dienylidene)methyl]-3-methyl-2H-isoxazol-5-one], the pIC50 was 4.45.
